Where a name gives a salt, the structure may show the parent alone.
Assay: stability of oxybutynin hydrochloride composition during terminal vapor sterilization in prefilled piston syringes

further impurities after vapor sterilization (1 mg/ml, pH 4.0, polypropylene syringes with piston plugs of conventional rubber material, vapor sterilization): exceeding 0.5% | stability during thermal sterilization (in words) (aqueous composition, polypropylene (disposable) syringes, piston plugs and closing caps of commonly used rubber materials): high instability or incompatibility
SMILES: CCN(CC)CC#CCOC(=O)C(O)(c1ccccc1)C1CCCCC1 (centres unmarked) [oxybutynin hydrochloride, 4-diethylaminobut-2-inyl-2-cyclohexyl-2-hydroxy-2-phenyl ethanoate]
